The values that follow are results of earlier work, collected in patent US11529304B2, “Method for dyeing keratin material by means of a dyeing agent and an acidic posttreatment agent” (Henkel AG & Co. KGaA, priority 2018, dated 2022).

The conditions of the series: for solubility in water: 25° C.

In the case of “mixture of the sodium salts of mono- and sisulfonic acids of 2-(2-quinolyl)-1H-indene-1,3(2H)-dione [Acid Yellow 3]”, the solubility in water was 20 mg/mL.

For `O=S(=O)([O-])c1ccc(N=Nc2c(O)ccc3ccccc23)cc1.[Na+]` [Acid Orange 7, sodium salt of 4-[(2-hydroxy-1-naphthyl)azo]benzene sulphonate], the solubility in water entry is reported as “more than 7 g/L”.

As for `O=C([O-])c1c(Cl)c(Cl)c(Cl)c(Cl)c1-c1c2c(Br)cc(=O)c(Br)c-2oc2c(Br)c(O)cc(Br)c12.O=C([O-])c1c(Cl)c(Cl)c(Cl)c(Cl)c1-c1c2c(Br)cc(=O)c(Br)c-2oc2c(Br)c(O)cc(Br)c12.[Na+].[Na+]` [Acid Red 92, disodium salt of 3,4,5,6-tetrachloro-2-(1,4,5,8-tetrabromo-6-hydroxy-3-oxoxanthen-9-yl)benzoic acid], the solubility in water entry is reported as “greater than 10 g/L”.

On to `O=C([O-])C1=NN(c2ccc(S(=O)(=O)[O-])cc2)C(=O)C1N=Nc1ccc(S(=O)(=O)[O-])cc1.[Na+].[Na+].[Na+]` (centres unmarked) [Acid Yellow 23], for which the “solubility in water (in words)” value (at 25° C.) is reported as “highly soluble”.

In the case of `Nc1cc(S(=O)(=O)[O-])cc2cc(S(=O)(=O)[O-])c(N=Nc3ccccc3)c(O)c12.[Na+].[Na+]` [Acid Red 33, diantrium salt of 5-amino-4-hydroxy-3-(phenylazo)-naphthalene-2,7-disulphonate], the solubility in water was 2.5 mg/mL.
